# Results from ChEMBL document CHEMBL1140807, “A flavonoid gossypin binds to cyclin-dependent kinase 2” (Bioorg Med Chem Lett, 2008).
# The source made the active and inactive calls. The calls are words filed in the database; no cut-off is given here.
# Target: Cyclin-dependent kinase 2 (Homo sapiens) (UniProt P24941)
# Assay: Binding affinity to human CDK2
smiles,measurement,value
O=c1c(O)c(-c2ccc(O)c(O)c2)oc2c(O[C@@H]3O[C@H](CO)[C@@H](O)[C@H](O)[C@H]3O)c(O)cc(O)c12,Activity,Active
